{"source": "PubChem BioAssay AID2060627", "about": "(Molecular Pharmacology Branch, DTP, NCI, 2025)", "test_system": "156681-154-R-J1-PDC complex spheroid viability", "assay": "Anticancer human tumor 156681-154-R-J1-PDC patient-derived melanoma cell line growth inhibition [CLK]", "conditions": "for viability, T/C: stronger effect = lower value", "procedure,_shortened": "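Multi-cell-type spheroids combined patient-derived tumor cells with HUVEC endothelial cells and human mesenchymal stem cells. Paired agents were dosed in half-log steps down from about clinical Cmax, or from 10 microM where Cmax was unknown.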", "note": "“And” between values parts separate entries of the source, which are not always exact repeats. Equal entries are not always repeated.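 Note: spheroids exposed to the agents for seven days.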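 Throughout, for viability, T/C: 100% = DMSO vehicle control viability.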"}
{"smiles": "Cn1ncnc1[C@H]1c2n[nH]c(=O)c3cc(F)cc(c23)N[C@@H]1c1ccc(F)cc1", "note": "+ CN1CCN(c2cc(C(=O)Nc3cc4cc(-c5cnn(C)c5)ccc4cn3)ccn2)CC1", "values": [{"measurement": "IC50", "setting": "curve of first compound, second compound 0.0316 µM", "result": "> 100", "unit": "nM"}, {"measurement": "IC50", "setting": "curve of first compound, second compound 0.1 µM", "result": "> 100", "unit": "nM"}, {"measurement": "IC50", "setting": "curve of first compound, second compound 0.316 µM", "result": "< 0.316", "unit": "nM"}, {"measurement": "IC50", "setting": "curve of first compound, second compound 1 µM", "result": "< 0.316", "unit": "nM"}, {"measurement": "IC50", "setting": "curve of first compound, second compound 3.16 µM", "result": "< 0.316", "unit": "nM"}, {"measurement": "IC50", "setting": "curve of first compound, second compound 10 µM", "result": "< 0.316", "unit": "nM"}, {"measurement": "viability, T/C", "setting": "second compound 0.0316 µM, first compound 0.000316 µM", "result": 88.8, "unit": "%"}, {"measurement": "viability, T/C", "setting": "second compound 0.0316 µM, first compound 0.001 µM", "result": 91.7, "unit": "%"}, {"measurement": "viability, T/C", "setting": "second compound 0.0316 µM, first compound 0.00316 µM", "result": 90.5, "unit": "%"}, {"measurement": "viability, T/C", "setting": "second compound 0.0316 µM, first compound 0.01 µM", "result": 94.8, "unit": "%"}, {"measurement": "viability, T/C", "setting": "second compound 0.0316 µM, first compound 0.0316 µM", "result": 81.8, "unit": "%"}, {"measurement": "viability, T/C", "setting": "second compound 0.0316 µM, first compound 0.1 µM", "result": 68.7, "unit": "%"}, {"measurement": "viability, T/C", "setting": "second compound 0.1 µM, first compound 0.000316 µM", "result": 89, "unit": "%"}, {"measurement": "viability, T/C", "setting": "second compound 0.1 µM, first compound 0.001 µM", "result": 84.5, "unit": "%"}, {"measurement": "viability, T/C", "setting": "second compound 0.1 µM, first compound 0.00316 µM", "result": 75.2, "unit": "%"}, {"measurement": "viability, T/C", "setting": "second compound 0.1 µM, first compound 0.01 µM", "result": 85.7, "unit": "%"}, {"measurement": "viability, T/C", "setting": "second compound 0.1 µM, first compound 0.0316 µM", "result": 66.1, "unit": "%"}, {"measurement": "viability, T/C", "setting": "second compound 0.1 µM, first compound 0.1 µM", "result": 59.6, "unit": "%"}, {"measurement": "viability, T/C", "setting": "second compound 0.316 µM, first compound 0.000316 µM", "result": 18.9, "unit": "%"}, {"measurement": "viability, T/C", "setting": "second compound 0.316 µM, first compound 0.001 µM", "result": 23.7, "unit": "%"}, {"measurement": "viability, T/C", "setting": "second compound 0.316 µM, first compound 0.00316 µM", "result": 18.3, "unit": "%"}, {"measurement": "viability, T/C", "setting": "second compound 0.316 µM, first compound 0.01 µM", "result": 17.5, "unit": "%"}, {"measurement": "viability, T/C", "setting": "second compound 0.316 µM, first compound 0.0316 µM", "result": 20.4, "unit": "%"}, {"measurement": "viability, T/C", "setting": "second compound 0.316 µM, first compound 0.1 µM", "result": 18.6, "unit": "%"}, {"measurement": "viability, T/C", "setting": "second compound 1 µM, first compound 0.000316 µM", "result": 0.18, "unit": "%"}, {"measurement": "viability, T/C", "setting": "second compound 1 µM, first compound 0.001 µM", "result": 2.71, "unit": "%"}, {"measurement": "viability, T/C", "setting": "second compound 1 µM, first compound 0.00316 µM", "result": 0.14, "unit": "%"}, {"measurement": "viability, T/C", "setting": "second compound 1 µM, first compound 0.01 µM", "result": 0.17, "unit": "%"}, {"measurement": "viability, T/C", "setting": "second compound 1 µM, first compound 0.0316 µM", "result": 2.08, "unit": "%"}, {"measurement": "viability, T/C", "setting": "second compound 1 µM, first compound 0.1 µM", "result": 0.69, "unit": "%"}, {"measurement": "viability, T/C", "setting": "second compound 3.16 µM, first compound 0.000316 µM", "result": 0.14, "unit": "%"}, {"measurement": "viability, T/C", "setting": "second compound 3.16 µM, first compound 0.001 µM", "result": 1.63, "unit": "%"}, {"measurement": "viability, T/C", "setting": "second compound 3.16 µM, first compound 0.00316 µM", "result": 1.37, "unit": "%"}, {"measurement": "viability, T/C", "setting": "second compound 3.16 µM, first compound 0.01 µM", "result": 0.09, "unit": "%"}, {"measurement": "viability, T/C", "setting": "second compound 3.16 µM, first compound 0.0316 µM", "result": 1.93, "unit": "%"}, {"measurement": "viability, T/C", "setting": "second compound 3.16 µM, first compound 0.1 µM", "result": 0.67, "unit": "%"}, {"measurement": "viability, T/C", "setting": "second compound 10 µM, first compound 0.000316 µM", "result": 0.13, "unit": "%"}, {"measurement": "viability, T/C", "setting": "second compound 10 µM, first compound 0.001 µM", "result": 3.21, "unit": "%"}, {"measurement": "viability, T/C", "setting": "second compound 10 µM, first compound 0.00316 µM", "result": 2.34, "unit": "%"}, {"measurement": "viability, T/C", "setting": "second compound 10 µM, first compound 0.01 µM", "result": 0.36, "unit": "%"}, {"measurement": "viability, T/C", "setting": "second compound 10 µM, first compound 0.0316 µM", "result": 4.58, "unit": "%"}, {"measurement": "viability, T/C", "setting": "second compound 10 µM, first compound 0.1 µM", "result": 1.43, "unit": "%"}]}
{"smiles": "CC(CO)NC(=O)c1cc(-c2ccc(Cl)cc2)nn(-c2cnn(C)c2)c1=O", "note": "(centres undefined)", "values": [{"measurement": "viability, T/C", "setting": "compound 0.0316 µM", "result": "97.5% and 93.1%"}, {"measurement": "viability, T/C", "setting": "compound 0.1 µM", "result": "73.8% and 82.1%"}, {"measurement": "viability, T/C", "setting": "compound 0.316 µM", "result": "100% and 94.2%"}, {"measurement": "viability, T/C", "setting": "compound 1 µM", "result": "94.3% and 99.3%"}, {"measurement": "viability, T/C", "setting": "compound 3.16 µM", "result": "87.3% and 77.8%"}, {"measurement": "viability, T/C", "setting": "compound 10 µM", "result": "51.8% and 58.1%"}, {"measurement": "IC50", "setting": "curve of compound", "result": "> 10000", "unit": "nM"}]}
